Reference: US6653529B2, “Use of the maize X112 mutant ahas 2 gene and imidazolinone herbicides for selection of transgenic monocots, maize, rice and wheat plants resistant to the imidazolinone herbicides” (BASF Aktiengesellschaft, priority 2000, dated 2003)
Values joined by “and” are separate entries in the source; they are usually repeats but may differ in a detail not shown here. Equal entries are not always repeated.

Key:
Assay type in all cases: in vivo
[1] = tested on: rice plants (transgenic Lines 26 and 29; Nt control); experiment: Greenhouse herbicide tests on rice; conditions: for average seed set in two transgenic lines: PURSUIT, RAPTOR, CADRE, SCEPTER at all rates tested, ARSENAL 1 to 2×; for rate at which growth of transgenic plants was slightly affected: post-emergence, fresh weight and visual observation
Source text: We evaluated the response of transgenic rice to PURSUIT® imazethapyr application in the greenhouse. In this experiment, we included 2 transgenic lines and their untransformed counterpart (Nt). The transgenic lines, designated as Line 26 and 29, were T3 progeny derived from previously identified homozygous resistant transgenic plants containing the maize XI12 ahas2 gene driven by its own promoter. All seeds were pre-germinated in water for 2-3 days then grown in a planting mixture consisting of 1:1 soil and MetroMix 360 (The Scotts Company, Marysville, Ohio 43040) in 6-inch pots (2 seeds per pot) in the greenhouse and sprayed with PURSUIT® imazethapyr at 63, 125, or 250 g ai/ha. For post-emergence application, the plants were sprayed 15 days after seeding, at which time most plants had 3 leaves. For pre-emergence treatment, PURSUIT® imazethapyr was sprayed one day after seeding. Each treatment contained 20 plants and, and 3 replicates per treatment. One set of materials was not sprayed and used as control. The plants were grown in the greenhouse and harvested at maturity. The amount of PURSUIT® imazethapyr applied in this study (63, 125, or 250 g ai/ha) was close to 1, 2 or 4× field application rate for imi-resistant corn (refer to Table 3) since PURSUIT® imazethapyr is not currently labeled for use in rice fields. A custom designed belt sprayer was operated as described (Newhouse et al. 1992) for all herbicide applications. Five plants from each treatment were randomly chosen and individually measured for morphological traits. Means and standard deviations were calculated over three replications. Plant heights were measured from the base of the plant to the tip of the flag leaf 93 days after herbicide applications (DAH) and number of tillers per plant were counted 102-103 DAH. Data on number of panicles per plant and yield were collected after plants were harvested.
A total of 9 herbicides, 5 imidazolinones, two rice herbicides and ACCENT® (nicosulfuron) and CLASSIC® (clorimuron-ethyl) were applied in this study. Materials and methods were basically the same as described above, except that instead of 6″ pots, flats with 18 (3″×3″ per cell) cells were used, and 10-12 seeds were planted to one 3″×3″ cell. Ten plants were maintained in one cell in the post-emergence application. Each herbicide was sprayed at 4 different rates, 1, 2, 4, and 6×, as either pre or post-emergence applications with three replications per treatment. The name and amount of herbicide applied in this experiment and information relevant to their commercial applications are listed in Table 3. For simplicity and convenience, the lowest concentration used is referred as 1× rate, 2, 4 and 6× rates can be calculated as multiples of 1×.
To monitor plant response to various herbicides, data on fresh weight was collected. For pre-emergence applications, all plants from one cell were harvested 32 days after spraying (36-day old plants) and weighed. Twenty-nine days after herbicide application, 5 plants (44-day old plants) from each cell in the post-emergence application, were cut and weighed individually. Mean fresh weight for each treatment was calculated over three replications. The remaining 5 plants were grown in the greenhouse to maturity at which time, panicles of 3 plants were collected, and number of filled seeds and number of total kernels were counted to determine percentage of seed set.

[2] = tested on: 8692 (wild type control corn line); experiment: Greenhouse spray test of corn lines with imidazolinone herbicides, injury score; conditions: for Score, individual plants (0 dead plants, 5 healthy plants with no injury): 16 days after treatment; for M.S.: score 0 (dead) to 5 (healthy), 16 days
[3] = tested on: 3395IR (homozygous XA17 imi-resistant corn line); experiment: as above; conditions: for Score, individual plants (0 dead plants, 5 healthy plants with no injury): 16 days after treatment; for M.S.: score 0 (dead) to 5 (healthy), 16 days
Source text: (§1) Grow one corn plant per pot (5×5 inch) in a 3×5 flat till three- to four-leaf stage (about 9 to 13 days depending on the weather). On the day of spraying, water the plants well and let excess water drip out. Spray plants on a belt-sprayer with the imidazolinone herbicides at desired rates. […] When temperature was too high, base water plants to prevent wilting. Closely observe the plants for the next two to three weeks. Symptoms of herbicide injury will be visible three days after spraying and susceptible plants will die within two to three weeks depending on temperature.
(§2) The plants were rated on a scale of 0-5 with 0 for dead plants and 5 for healthy plants with no or minimum injury.
(§3) Two transgenic hybrids BAa-4 and MAa-7 lines (see FIG. 5 for their pedigree), a non-transformed control line B×A (B73×A188), 8962IT (heterozygous XI12 imi-tolerant corn line), 8962 (wild type control) and 3395IR (homozygous XA17 imi-resistant corn line) (8962IT and 8962 were from ICI, now Garst Seed Company, Slater, Iowa 50244, and 3395IR was from Pioneer Hi-Bred International Inc, Iowa 50306-3453). Plants were sprayed with 4, 8, 16 or 20×PURSUIT® imazethapyr, ARSENAL® imazapyr, CADRE® imazameth or RAPTOR® imazamox. Plants were scored 0 to 5 (with 0 being dead plants, 5 being healthy plants with no injury) individually 16 days after herbicide treatments. […] For the four tested imidazolinones, transgenic plants could tolerate higher rates of ARSENAL® imazapyr, PURSUIT® imazethapyr, than CADRE® imazameth and RAPTOR® imazamox.

[4] = tested on: transgenic corn hybrid BAa-4; experiment: as above; conditions: for Score, individual plants (0 dead plants, 5 healthy plants with no injury) / M.S.: BAa-4; for Score, individual plants (0 dead plants, 5 healthy plants with no injury): 16 days after treatment; for M.S.: score 0 (dead) to 5 (healthy), 16 days
Source text: as §1, §2, §3

[5] = tested on: transgenic corn hybrid MAa-7; experiment: as above; conditions: for Score, individual plants (0 dead plants, 5 healthy plants with no injury) / M.S.: MAa-7; for Score, individual plants (0 dead plants, 5 healthy plants with no injury): 16 days after treatment; for M.S.: score 0 (dead) to 5 (healthy), 16 days
Source text: as §1, §2, §3

[6] = tested on: non-transformed control corn line BxA (B73×A188); experiment: as above; conditions: for Score, individual plants (0 dead plants, 5 healthy plants with no injury): 16 days after treatment; for M.S.: score 0 (dead) to 5 (healthy), 16 days
Source text: as §1, §2, §3

[7] = tested on: 8692IT (heterozygous XI12 imi-tolerant corn line); experiment: as above; conditions: for Score, individual plants (0 dead plants, 5 healthy plants with no injury): 16 days after treatment; for M.S.: score 0 (dead) to 5 (healthy), 16 days
[8] = 4×: PURSUIT 250, RAPTOR 160, ARSENAL 96, CADRE 400 g/ha
[9] = 8×: PURSUIT 500, RAPTOR 320, ARSENAL 192, CADRE 800 g/ha
[10] = 16×: RAPTOR 640 g/ha, ARSENAL 384 g/ha, CADRE 1.6 kg/ha

CCc1cnc(C2=NC(C)(C(C)C)C(=O)N2)c(C(=O)O)c1 (centres unmarked) [PURSUIT ®, imazethapyr]
average seed set in two transgenic lines [1]: about 85%
rate at which growth of transgenic plants was slightly affected [1]: 6 ×
fate of transgenic plants of Lines 26 and 29 ([1]; pre-emergence, 63, 125, 250 g/ha): survived at all rates applied
Score, individual plants (0 dead plants, 5 healthy plants with no injury) [2, 8]: 2 (3×) and 1 (2×)
M.S. [2, 8]: 1.6
Score, individual plants (0 dead plants, 5 healthy plants with no injury) [2, 9]: 0
M.S. [2, 9]: 0
Score, individual plants (0 dead plants, 5 healthy plants with no injury) ([2]; 20×: PURSUIT 1.25 kg/ha): 0
M.S. ([2]; 20×: PURSUIT 1.25 kg/ha): 0
Score, individual plants (0 dead plants, 5 healthy plants with no injury) [3, 8]: 5
M.S. [3, 8]: 5
Score, individual plants (0 dead plants, 5 healthy plants with no injury) [3, 9]: 5
M.S. [3, 9]: 5
Score, individual plants (0 dead plants, 5 healthy plants with no injury) ([3]; 20×: PURSUIT 1.25 kg/ha): 5
M.S. ([3]; 20×: PURSUIT 1.25 kg/ha): 5
Score, individual plants (0 dead plants, 5 healthy plants with no injury) [4, 8]: 5
M.S. [4, 8]: 5
Score, individual plants (0 dead plants, 5 healthy plants with no injury) [4, 9]: 5
M.S. [4, 9]: 5
Score, individual plants (0 dead plants, 5 healthy plants with no injury) ([4]; 20×: PURSUIT 1.25 kg/ha): 4 (3×) and 3 and 2
M.S. ([4]; 20×: PURSUIT 1.25 kg/ha): 3.4
Score, individual plants (0 dead plants, 5 healthy plants with no injury) [5, 8]: 5
M.S. [5, 8]: 5
Score, individual plants (0 dead plants, 5 healthy plants with no injury) [5, 9]: 5
M.S. [5, 9]: 5
Score, individual plants (0 dead plants, 5 healthy plants with no injury) ([5]; 20×: PURSUIT 1.25 kg/ha): 0 and 3 and 2 (2×) and 4
M.S. ([5]; 20×: PURSUIT 1.25 kg/ha): 2.2
Score, individual plants (0 dead plants, 5 healthy plants with no injury) [6, 8]: 0
M.S. [6, 8]: 0
Score, individual plants (0 dead plants, 5 healthy plants with no injury) [6, 9]: 0
M.S. [6, 9]: 0
Score, individual plants (0 dead plants, 5 healthy plants with no injury) ([6]; 20×: PURSUIT 1.25 kg/ha): 0
M.S. ([6]; 20×: PURSUIT 1.25 kg/ha): 0
Score, individual plants (0 dead plants, 5 healthy plants with no injury) [7, 8]: 5
M.S. [7, 8]: 5
Score, individual plants (0 dead plants, 5 healthy plants with no injury) [7, 9]: 5 (4×) and 4
M.S. [7, 9]: 4.8
Score, individual plants (0 dead plants, 5 healthy plants with no injury) ([7]; 20×: PURSUIT 1.25 kg/ha): 4 (4×) and 3
M.S. ([7]; 20×: PURSUIT 1.25 kg/ha): 3.8

COCc1cnc(C2=NC(C)(C(C)C)C(=O)N2)c(C(=O)O)c1 (centres unmarked) [RAPTOR ®, imazamox]
average seed set in two transgenic lines [1]: about 85%
rate at which growth of transgenic plants was slightly affected [1]: 6 ×
rate at which growth of both transgenic lines was affected ([1]; pre-emergence): 6 ×
Score, individual plants (0 dead plants, 5 healthy plants with no injury) [2, 8]: 0
M.S. [2, 8]: 0
Score, individual plants (0 dead plants, 5 healthy plants with no injury) [2, 9]: 0
M.S. [2, 9]: 0
Score, individual plants (0 dead plants, 5 healthy plants with no injury) [2, 10]: 0
M.S. [2, 10]: 0
Score, individual plants (0 dead plants, 5 healthy plants with no injury) [3, 8]: 5
M.S. [3, 8]: 5
Score, individual plants (0 dead plants, 5 healthy plants with no injury) [3, 9]: 5
M.S. [3, 9]: 5
Score, individual plants (0 dead plants, 5 healthy plants with no injury) [3, 10]: 5
M.S. [3, 10]: 5
growth of transgenic line BAa-4 ([4]; 4× (160 g/ha)): slightly affected
Score, individual plants (0 dead plants, 5 healthy plants with no injury) [4, 8]: 3 and 4 (4×)
M.S. [4, 8]: 3.8
Score, individual plants (0 dead plants, 5 healthy plants with no injury) [4, 9]: 4 (4×) and 0
M.S. [4, 9]: 3.2
Score, individual plants (0 dead plants, 5 healthy plants with no injury) [4, 10]: 3 and 0 (3×) and 1
M.S. [4, 10]: 0.8
performance of transgenic line MAa-7 ([5]; 4× (160 g/ha)): performed well
Score, individual plants (0 dead plants, 5 healthy plants with no injury) [5, 8]: 4 and 5 (4×)
M.S. [5, 8]: 4.8
Score, individual plants (0 dead plants, 5 healthy plants with no injury) [5, 9]: 3 (3×) and 2 and 4
M.S. [5, 9]: 3
Score, individual plants (0 dead plants, 5 healthy plants with no injury) [5, 10]: 1
M.S. [5, 10]: 1
Score, individual plants (0 dead plants, 5 healthy plants with no injury) [6, 8]: 0
M.S. [6, 8]: 0
Score, individual plants (0 dead plants, 5 healthy plants with no injury) [6, 9]: 0
M.S. [6, 9]: 0
Score, individual plants (0 dead plants, 5 healthy plants with no injury) [6, 10]: 0
M.S. [6, 10]: 0
Score, individual plants (0 dead plants, 5 healthy plants with no injury) [7, 8]: 4 and 3 (3×) and 2
M.S. [7, 8]: 3
Score, individual plants (0 dead plants, 5 healthy plants with no injury) [7, 9]: 3 (2×) and 2 (2×)
M.S. [7, 9]: 2.5
Score, individual plants (0 dead plants, 5 healthy plants with no injury) [7, 10]: 2 (2×) and 1 and 0 (2×)
M.S. [7, 10]: 1
